Values of other authors as cited in patent US20260166148A1, “MAGNETOSTRICTIVE PIEZOELECTRIC NANOASSEMBLY AS CANCER CHEMOTHERAPEUTIC” (GRANT DEMARTINO INDUSTRIES LLC, priority 2021, published 2026).

Columns and labels:
[1] = as studied by Jun Yang et al. [18]

SMILES | water solubility [1] | IC50 values in human tumor cells (human tumor cells; when activated (photosensitizer irradiated)) | apoptosis induction, killing the cells (cellular effect) (human tumor cells; when activated, human tumor cells)
CC(C)(N=NC(C)(C)C1=NCCN1)C1=NCCN1.Cl.Cl [AIPH, 2,2′-Azobis(2-(2-imidazolin-2-yl)propane) dihydrochloride] | excellent |  | 
COc1ccc(C2=[N+]3C(=Nc4c(-c5ccccc5)c(Br)c(-c5ccc(OC)cc5)n4[B-]3(F)F)C(c3ccccc3)=C2Br)cc1 [ADPM06] |  | micromolar range | induces apoptosis
